Data reported in PubChem BioAssay AID2060893 (Molecular Pharmacology Branch, DTP, NCI, 2025).

Tested on: K86415-001-R-J1-PDC complex spheroids, viability
Experiment: Anticancer human tumor K86415-001-R-J1-PDC patient-derived lung adenocarcinoma cell line growth inhibition [RAS]
Conditions: for IC50: curve of first compound; for viability, T/C: stronger effect = lower value
Procedure, shortened: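 Multi-cell-type spheroids: tumor cells plus HUVEC endothelial cells and mesenchymal stem cells. RAS-pathway inhibitors were combined with targeted agents, each dosed in half-log steps down from clinical Cmax, or from 10 microM when Cmax was unknown.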
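Also: spheroids exposed to agents for seven days before readout.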

IC50 (second compound 0.000949 µM): < 0.0316 µM
IC50 (second compound 0.003 µM): < 0.0316 µM
IC50 (second compound 0.00949 µM): < 0.0316 µM
IC50 (second compound 0.03 µM): < 0.0316 µM
IC50 (second compound 0.0949 µM): < 0.0316 µM
IC50 (second compound 0.3 µM): < 0.0316 µM
SMILES: CC(=O)OC12COC1CC(O)C1(C)C(=O)C(O)C3=C(C)C(OC(=O)C(O)C(NC(=O)OC(C)(C)C)c4ccccc4)CC(O)(C(OC(=O)c4ccccc4)C21)C3(C)C (configuration not stated) + CCn1c(-c2cccnc2C(C)OC)c2c3cc(ccc31)N1CCOC(CC(NC(=O)C(C(C)C)N(C)C(=O)C3(F)CCN(C(=O)C#CC(C)(C)N(C)C)CC3)C(=O)N3CCCC(N3)C(=O)OCC(C)(C)C2)C1
viability, T/C (second compound 0.000949 µM, first compound 0.0316 µM): 18.7%
viability, T/C (second compound 0.000949 µM, first compound 0.1 µM): 15.3%
viability, T/C (second compound 0.000949 µM, first compound 0.316 µM): 11.3%
viability, T/C (second compound 0.000949 µM, first compound 1 µM): 17.3%
viability, T/C (second compound 0.000949 µM, first compound 3.16 µM): 16.2%
viability, T/C (second compound 0.000949 µM, first compound 10 µM): 12.4%
viability, T/C (second compound 0.003 µM, first compound 0.0316 µM): 15.4%
viability, T/C (second compound 0.003 µM, first compound 0.1 µM): 12%
viability, T/C (second compound 0.003 µM, first compound 0.316 µM): 11.3%
viability, T/C (second compound 0.003 µM, first compound 1 µM): 10.1%
viability, T/C (second compound 0.003 µM, first compound 3.16 µM): 12.7%
viability, T/C (second compound 0.003 µM, first compound 10 µM): 9.57%
viability, T/C (second compound 0.00949 µM, first compound 0.0316 µM): 13.6%
viability, T/C (second compound 0.00949 µM, first compound 0.1 µM): 10.8%
viability, T/C (second compound 0.00949 µM, first compound 0.316 µM): 12.1%
viability, T/C (second compound 0.00949 µM, first compound 1 µM): 11.7%
viability, T/C (second compound 0.00949 µM, first compound 3.16 µM): 11.5%
viability, T/C (second compound 0.00949 µM, first compound 10 µM): 7.67%
viability, T/C (second compound 0.03 µM, first compound 0.0316 µM): 10.3%
viability, T/C (second compound 0.03 µM, first compound 0.1 µM): 14.9%
viability, T/C (second compound 0.03 µM, first compound 0.316 µM): 10.9%
viability, T/C (second compound 0.03 µM, first compound 1 µM): 11.3%
viability, T/C (second compound 0.03 µM, first compound 3.16 µM): 10.9%
viability, T/C (second compound 0.03 µM, first compound 10 µM): 12.1%
viability, T/C (second compound 0.0949 µM, first compound 0.0316 µM): 11.4%
viability, T/C (second compound 0.0949 µM, first compound 0.1 µM): 9.46%
viability, T/C (second compound 0.0949 µM, first compound 0.316 µM): 10.1%
viability, T/C (second compound 0.0949 µM, first compound 1 µM): 10.8%
viability, T/C (second compound 0.0949 µM, first compound 3.16 µM): 6.98%
viability, T/C (second compound 0.0949 µM, first compound 10 µM): 8.55%
viability, T/C (second compound 0.3 µM, first compound 0.0316 µM): 10.3%
viability, T/C (second compound 0.3 µM, first compound 0.1 µM): 7.45%
viability, T/C (second compound 0.3 µM, first compound 0.316 µM): 7.7%
viability, T/C (second compound 0.3 µM, first compound 1 µM): 5.41%
viability, T/C (second compound 0.3 µM, first compound 3.16 µM): 6.82%
viability, T/C (second compound 0.3 µM, first compound 10 µM): 7.01%
